Reference: a melting point compilation (Tetko et al.; mined from patent text by program, amines drawn as free bases though some values may be those of a salt)

First: COc1ccc(CNc2ncnc3c2ncn3C2OC(Cn3cc(C)nn3)C(O)C2O)cc1 (centres undefined)
Second: CCOC(=O)c1cn(Cc2cccnc2)nc1OCc1ccc(OCc2nc(-c3ccco3)oc2C)c(OC)c1
The melting point of the first is higher: 183 °C for the first, 131 to 132 °C for the second.

First: CC1=CC(OCc2ccccc2)(OC(=O)c2ccc(Br)c(OCCn3cnnn3)c2C)N(C)N1 (centres undefined)
Second: Cc1oc(-c2ccco2)nc1COc1ccc(COc2nn(Cc3ccccc3)cc2C=O)cc1
The melting point of the first is higher: 122 to 125 °C for the first, 118 to 119 °C for the second.

Compared with CN(C)CC1CN(c2c(F)cc3c(=O)c(C(=O)O)cn(C4CC4)c3c2F)CCO1 (centres undefined), COc1ccc(N2CCOCC2)c2sc(NC(=O)N3C[C@@H]4CC[C@H]3C4)nc12 is lower in melting point: 182 to 183 °C for the first, 149 °C for the second.

First: O=C1Nc2c(O)cc(Cl)cc2C(C#CC2CC2)(C(F)(F)F)O1 (single isomer, unassigned; (-))
Second: CC1(C)OC(=O)Nc2ccc(-c3cc(C(F)(F)F)cc(C(F)(F)F)c3)cc21
The melting point of the first is lower: 170 to 172 °C for the first, 258 to 260 °C for the second.

First: COc1cc(OCC(=O)N[C@H]2CCN(Cc3ccccc3)C2)ccc1C(=NN)C(=O)c1ccc(O)c(N)c1
Second: CC(=O)OCc1c(C(=O)C(=O)O)c2cc(OCc3ccccc3)ccc2n1Cc1ccc(C(C)(C)C)cc1
The melting point of the first is lower: 139 to 141 °C for the first, 145 to 146 °C for the second.

First: COc1cc(Br)c2nc(-c3ccc(OC)c(F)c3)cc(O)c2c1
Second: Oc1ccc2nc(-c3ccc(O)c(F)c3)oc2c1
The melting point of the first is lower: 200 to 201 °C for the first, 269 to 271 °C for the second.

First: NNc1ccnc2c(NC(=O)c3c(Cl)cccc3Cl)cccc12
Second: CCCCCCCCOc1ccc(C(=O)Nc2cccc(Cl)c2Cl)cc1
The melting point of the first is higher: 204 to 206 °C for the first, 104 to 106 °C for the second.

Compared with C=CCOCc1csc2c(=O)c(C(=O)NCc3ccc(Cl)cc3)cn(C)c12, C=CCc1ccc(CCNC(=O)c2cc(Cl)ccc2OC)cc1S(N)(=O)=O is higher in melting point: 156 to 158 °C for the first, 186 to 187 °C for the second.

First: Cc1cc([N+](=O)[O-])sc1C(=O)c1sc(Nc2ccc(S(N)(=O)=O)cc2)nc1N
Second: COc1cc(Cl)c(C(=O)c2ccc([N+](=O)[O-])cc2)c(Cl)c1
The melting point of the first is higher: 268 to 269 °C for the first, 147 to 150 °C for the second.

First: CN(C)c1ccc(CC(=O)Nc2cc(CC3SC(=O)NC3=O)ccc2O)cc1 (centres undefined)
Second: CC1(c2ccc([N+](=O)[O-])cc2)C(=O)Nc2cc(Cl)ccc2C1=O (centres undefined)
The melting point of the first is higher: 216 to 218 °C for the first, 209 to 210 °C for the second.

First: Nc1ccccc1Sc1ccc2c(c1)OCC(=O)N2
Second: CNC(=O)N(OC)c1ccccc1COc1ccc2c(c1)OCC2=NOC
The melting point of the first is lower: 70 to 71 °C for the first, 109 to 112 °C for the second.

First: O=S(=O)(c1ccccc1)N1CCCC1c1cccc(F)c1 (racemic)
Second: O=S(=O)(c1ccccc1)c1ccc2cc[nH]c2c1
The melting point of the first is lower: 96 °C for the first, 141 to 144 °C for the second.

First: O=C1CCC(N2Cc3c(CNC(=S)NC4CCCCC4)cccc3C2=O)C(=O)N1 (centres undefined)
Second: CCNC(=O)N(C)Cc1cccc2c1CN(C1CCC(=O)NC1=O)C2=O (centres undefined)
The melting point of the first is higher: over 260 °C for the first, 183 to 185 °C for the second.

First: COC(=O)/C(N)=C/C(=O)/C=C/c1ccc(Cl)cc1
Second: COc1ccc(S(=O)(=O)n2c(CCCC(=O)O)cc3cc(Cl)ccc32)cc1
The melting point of the first is lower: 112 to 113 °C for the first, 138 to 142 °C for the second.

First: Nc1nc(O)cc(NC2CC2)n1
Second: Cn1ncc2c1C(=O)C(Cl)=C(NC1CC1)C2=O
The melting point of the first is higher: 229 °C for the first, 175 to 176 °C for the second.

First: CN1C(=O)C2(COc3cc4c(cc32)OCCO4)c2c(NC(=O)NC3CCCCC3)cccc21 (centres undefined)
Second: O=C(NC1CCC1)c1cc(Nc2nc(N3CCCC3c3ccccn3)nc3ccoc23)[nH]n1 (centres undefined)
The melting point of the first is lower: 175 to 177 °C for the first, 250 °C for the second.

First: Cc1ccnc2c1C(=O)CC(c1ccsc1)C2 (centres undefined)
Second: Cc1cc2c(s1)CCCC1CC(=O)N(c3ccc(Cl)cc3)N=C21 (centres undefined)
The melting point of the first is lower: 92 to 93 °C for the first, 119 to 121 °C for the second.

First: O=CN(O)C(CCCO)CS(=O)(=O)c1ccc(-c2ccc(F)cc2)cc1 (centres undefined)
Second: CS(=O)(=O)C(=C1CN(C(c2ccccc2)c2ccccc2)C1)c1cc(F)ccc1F
The melting point of the first is lower: 143 to 144 °C for the first, 176 °C for the second.

First: O=C(O)CCCCN1C(=O)c2ccc([N+](=O)[O-])cc2C1=O
Second: CCCCc1nn(-c2cc([N+](=O)[O-])ccc2C(F)(F)F)c(=O)n1Cc1ccc(-c2ccccc2S(=O)(=O)NC(C)(C)C)cc1F
The melting point of the first is higher: 172 °C for the first, 145 to 146 °C for the second.

Compared with CCCC(=O)c1ccc(=O)[nH]c1CCC, CCCc1cc(=O)[nH]c(NC(=N)Nc2ccccc2)n1 is higher in melting point: 86 to 88 °C for the first, 196 °C for the second.

First: N#Cc1cccc(OCc2ccccc2)c1[N+](=O)[O-]
Second: N#Cc1ccccc1-c1ccc2[nH]c(Cc3ccccc3)nc2c1
The melting point of the first is lower: 94 to 95 °C for the first, 133 to 140 °C for the second.

First: COc1cc(OC(C)=O)c(OC)c(CCCCCc2c(OC)c(OC(C)=O)cc(OC)c2OC(C)=O)c1OC(C)=O
Second: COc1ccc(C(=O)c2ccc(OCCc3nc(-c4ccccc4)oc3C)cc2)c(OC(C)(C)C(=O)O)c1
The melting point of the first is higher: 94.5 to 95 °C for the first, 81 to 82 °C for the second.

First: CCOC(=O)CCCCCc1c(O)c2cccnc2n(-c2ccccc2)c1=O
Second: CC(=O)c1cn(S(=O)(=O)c2ccccc2)c2nccc(-c3ccccc3)c12
The melting point of the first is higher: 167 to 168 °C for the first, 138 to 140 °C for the second.

First: CCSc1nc(C)n(Cc2ccc(-c3ccccc3C(=O)O)cc2)c1CO
Second: CCc1cccc(C)c1C(=O)N[C@@H](Cc1ccc(-c2c(C)n(C)c(=O)n(C)c2=O)cc1)C(=O)O
The melting point of the first is higher: 250 °C for the first, 127 to 133 °C for the second.

First: CCCCNS(=O)(=O)c1ccc(OC)c(NC(C)=O)c1
Second: CCCOc1ccccc1-c1nc2nc(NCCCO)ncc2c(=O)[nH]1
The melting point of the first is lower: 115 to 117 °C for the first, 185 to 186 °C for the second.

First: NC(=O)N1C(=O)C(=C(OC(=O)c2ccco2)c2cccs2)c2cc(F)c(Cl)cc21
Second: O=C(Nc1ccccc1)c1cccs1
The melting point of the first is higher: 215 to 216 °C for the first, 139 to 149 °C for the second.

First: Cc1ccc(Sc2ccc(N)cc2)cc1
Second: Cc1ccc(C(=O)C2=C(O)C(=O)N(c3ccc(C)nn3)C2c2ccc(C(C)C)cc2)cc1 (centres undefined)
The melting point of the first is lower: 76 °C for the first, 279 °C for the second.

Compared with CCOC(=O)CCC(=NOCc1ccc(OCc2nc(-c3ccccc3)oc2C)cc1)c1ccc(Oc2ccccc2)cc1, COc1ccc([C@@H]2OC(=O)[C@H](Cc3ccccc3)N2C(=O)OCc2ccccc2)cc1 is lower in melting point: 118 to 119 °C for the first, 85 °C for the second.

Compared with Cc1ccccc1C1C(C#N)=C(c2ccccc2)Nc2n[nH]cc21 (centres undefined), N#CC1c2ccccc2-c2ccccc21 is lower in melting point: 246 °C for the first, 152 to 154 °C for the second.

First: CC(=N)NC(=O)Nc1ccccc1
Second: COC(=O)C1CCCN(C(=O)OCc2ccccc2)N1C(=O)C(Br)CBr (centres undefined)
The melting point of the first is higher: 204 to 206 °C for the first, 132 to 134 °C for the second.

Compared with CCOc1cc(C(F)(F)F)sc1C(=O)O, CCOc1ccc(NN=C2CCC(C)n3c2ncc(C(=O)O)c3=O)cc1 (centres undefined) is higher in melting point: 144 °C for the first, 218 to 219 °C for the second.

First: O=C(C=Cc1cccnc1)NCCCOC1CCN(Cc2ccccc2)CC1
Second: COc1ccc(-c2nc(N)nc(NC(=O)c3cccnc3)n2)c2ccccc12
The melting point of the first is lower: 100 to 102 °C for the first, 208 to 209 °C for the second.

Compared with COc1ccc(N2CCN(c3ccc(Nc4nnc(C)s4)cc3)CC2)cc1, CC(=O)Nc1ccc(-c2cc(C(=O)c3ccc(Cl)cc3)sc2N2CCOCC2)cc1 is lower in melting point: 277 °C for the first, 120 °C for the second.

First: COc1cc2c(cc1OC)CN(CCOc1ccc(NC(=O)c3cccc4c(=O)c5ccccc5[nH]c34)cc1)CC2
Second: Cc1ccc(-c2ccc3c(c2)C=C(C(=O)Nc2ccc(CS(=O)Cc4ccccc4)cc2)CCO3)cc1 (centres undefined)
The melting point of the first is lower: 154 °C for the first, 208 to 209 °C for the second.

First: C#CCN1CC(=O)N(c2cc(Cl)ccc2C)C1=S
Second: Cc1cc(-n2c(Cl)cnc2C)cc2ccc(=O)[nH]c12
The melting point of the first is lower: 131 to 134 °C for the first, 258 to 261 °C for the second.

First: CNC(=O)c1sc2cnccc2c1Oc1ccc(CO)cc1
Second: Nc1cc(-c2nnc(SCc3ccc(Cl)cc3)o2)ccn1
The melting point of the first is lower: 195 to 196 °C for the first, 200 to 201 °C for the second.

First: CC(C)c1ncc(O)c(O)n1
Second: COCOc1cc(C=O)c2nc3cccc(OCOC)c3nc2c1
The melting point of the first is higher: 187 °C for the first, 148 to 150 °C for the second.

First: Fc1ccccc1-c1nc2cccnc2o1
Second: Cc1ccc(C(=O)NCc2ccccc2)cc1-c1nc(NCCCN(C)C)nc2c1CNC(=O)N2c1c(F)cccc1F
The melting point of the first is lower: 119 to 120 °C for the first, 141 to 144 °C for the second.

First: CC(=NNc1ccc(C2=NNC(=O)CC2C)cc1)c1ccc(O)cc1O (centres undefined)
Second: CC(=O)N1CCC(C)(C)c2cccc(CCCN3CCN(c4nsc5ccccc45)CC3)c21
The melting point of the first is higher: 259 to 261 °C for the first, 109 °C for the second.

First: Cc1cc(C)c(C2=C(OC(=O)C(C)(C)C)CN(C)C2=O)c(C)c1
Second: CCCn1cnc2c1c1nnc(-c3ccccc3)n1c(=O)n2CCC
The melting point of the first is lower: 75 °C for the first, 215 to 217 °C for the second.

First: NC(=O)c1snc(Cl)c1Cl
Second: CS(=O)(=O)Nc1ccc(N)cc1CC1CCCCC1
The melting point of the first is lower: 156 to 158 °C for the first, 160 to 162 °C for the second.

First: CCCCCCCCCCC[C@H](CC(=O)N[C@@H](CO)C(=O)OCc1ccccc1)OC(=O)CCCCCC
Second: IC#CCOc1ccncc1
The melting point of the first is lower: 46 to 48 °C for the first, 140 to 141 °C for the second.
